These results are taken from PubChem BioAssay AID328 (DTP/NCI, 2004).

This assay relates to BDF1 mice, P388 leukemia ip, median survival T/C. As to the kind of experiment: NCI In Vivo Anticancer Drug Screen. Data for tumor model P388 Leukemia (intraperitoneal) in B6D2F1 (BDF1) mice. As to conditions: endpoint: median survival time, higher = longer survival. A digest of the protocol: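 In tumour-bearing mice, survival after compound treatment is set against the vehicle group and given as a quotient.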

[1] abbreviates: dose: 25.0 mg/kg/injection, schedule: Q04DX003 (ip), vehicle: saline with Tween-80.
The mark [2] stands for this setting: dose: 50.0 mg/kg/injection, schedule: Q04DX003 (ip), vehicle: saline with Tween-80.
Setting [3] is: dose: 100.0 mg/kg/injection, schedule: Q04DX003 (ip), vehicle: saline with Tween-80.
[4] abbreviates: dose: 200.0 mg/kg/injection, schedule: Q04DX003 (ip), vehicle: saline with Tween-80.

“And” between values parts separate entries of the source, which are not always exact repeats. Equal entries are not always repeated. Toxic doses and inconclusive results are not listed.

As to `C/C(=C/c1cc2c(cc1Br)OCO2)[N+](=O)[O-]`, the T/C runs as follows: under setting [1], 98 % of control; under setting [2], 98 % of control; under setting [3], 100 % of control and 106 % of control; under setting [4], 115 % of control.

In the case of `CCCCc1ccc(NC(=O)N(CCCl)N=O)cc1`, the T/C is 160 % of control (dose: 2.5 mg/kg/injection, schedule: Q01DX009 (ip), vehicle: Klucel (hydroxypropylcellulose) (HPC)); 175 % of control (dose: 2.5 mg/kg/injection, schedule: Q04DX003 (ip), vehicle: Klucel (hydroxypropylcellulose) (HPC)); 180 % of control (dose: 4.0 mg/kg/injection, schedule: Q01DX009 (ip), vehicle: Klucel (hydroxypropylcellulose) (HPC)); 191 % of control (dose: 4.0 mg/kg/injection, schedule: Q04DX003 (ip), vehicle: Klucel (hydroxypropylcellulose) (HPC)); 230 % of control (dose: 8.0 mg/kg/injection, schedule: Q01DX009 (ip), vehicle: Klucel (hydroxypropylcellulose) (HPC)); 208 % of control (dose: 8.0 mg/kg/injection, schedule: Q04DX003 (ip), vehicle: Klucel (hydroxypropylcellulose) (HPC)). Besides, the T/C is 172 % of control (dose: 10.0 mg/kg/injection, schedule: Q04DX003 (ip), vehicle: other); 225 % of control (dose: 16.0 mg/kg/injection, schedule: Q01DX009 (ip), vehicle: Klucel (hydroxypropylcellulose) (HPC)); 233 % of control (dose: 16.0 mg/kg/injection, schedule: Q04DX003 (ip), vehicle: Klucel (hydroxypropylcellulose) (HPC)); 172 % of control (dose: 20.0 mg/kg/injection, schedule: Q04DX003 (ip), vehicle: other); 100 % of control (dose: 32.0 mg/kg/injection, schedule: Q01DX009 (ip), vehicle: Klucel (hydroxypropylcellulose) (HPC)); 222 % of control (dose: 66.0 mg/kg/injection, schedule: Q04DX003 (ip), vehicle: other). In addition, the T/C is, setting by setting: (dose: 99.0 mg/kg/injection, schedule: Q04DX003 (ip), vehicle: other) 186 % of control; (dose: 150.0 mg/kg/injection, schedule: Q04DX003 (ip), vehicle: other) 254 % of control; (dose: 225.0 mg/kg/injection, schedule: Q04DX003 (ip), vehicle: other) 245 % of control.

Regarding `C/C1=C/C2=CC(C)C[C@@H]2C(=O)[C@]2(C)C(=O)CC(C)(C)[C@H]2CC1=O` (some centres undefined), the T/C is 106 % of control (dose: 0.12 mg/kg/injection, schedule: Q01DX009 (ip), vehicle: alcohol); 122 % of control (dose: 0.25 mg/kg/injection, schedule: Q01DX009 (ip), vehicle: alcohol); 108 % of control (dose: 1.4 mg/kg/injection, schedule: Q01DX009 (ip), vehicle: alcohol); 110 % of control (dose: 2.2 mg/kg/injection, schedule: Q01DX009 (ip), vehicle: alcohol).

For the compound `COC(=O)c1cc(Cl)ccc1OCC(=O)NCc1ccc(Cl)cc1`, the T/C (dose: 100.0 mg/kg/injection, schedule: Q01DX001 (ip), vehicle: saline with Tween-80) was 100 % of control; the T/C (dose: 200.0 mg/kg/injection, schedule: Q01DX001 (ip), vehicle: saline with Tween-80) is 95 % of control; the T/C (dose: 400.0 mg/kg/injection, schedule: Q01DX001 (ip), vehicle: saline with Tween-80) is 90 % of control.

As for `N=C(N)c1ccc(OCCCOc2ccc(C(=N)N)cc2Br)c(Br)c1`, the T/C runs as follows: (dose: 2.2 mg/kg/injection, schedule: Q01DX009 (ip), vehicle: saline) 100 % of control; (dose: 3.3 mg/kg/injection, schedule: Q01DX009 (ip), vehicle: saline) 118 % of control; (dose: 5.0 mg/kg/injection, schedule: Q01DX009 (ip), vehicle: saline) 118 % of control; (dose: 25.0 mg/kg/injection, schedule: Q01DX009 (ip), vehicle: saline sonified) 122 % of control.

Consider `Cc1cccc(C(=O)NN)c1O`, for which the T/C reads like this: (dose: 25.0 mg/kg/injection, schedule: Q01DX009 (ip), vehicle: saline + alcohol) 92 % of control; (dose: 100.0 mg/kg/injection, schedule: Q01DX009 (ip), vehicle: saline + alcohol) 97 % of control.

Turning to `CCCCC(C)(O)CC` (centres undefined), the T/C (dose: 50.0 mg/kg/injection, schedule: Q01DX009 (ip), vehicle: saline with Tween-80) is 109 % of control; the T/C (dose: 100.0 mg/kg/injection, schedule: Q01DX009 (ip), vehicle: saline with Tween-80) was 118 % of control; the T/C under setting [3] is 104 % of control; the T/C (dose: 200.0 mg/kg/injection, schedule: Q01DX009 (ip), vehicle: saline with Tween-80) was 100 % of control; the T/C under setting [4] is 104 % of control.

With `CC1CC(C)(C)N=C(C(C)(C)c2ccccc2)O1` (centres undefined), the T/C (dose: 50.0 mg/kg/injection, schedule: Q04DX003 (ip), vehicle: saline sonified) was 100 % of control; the T/C (dose: 100.0 mg/kg/injection, schedule: Q04DX003 (ip), vehicle: saline sonified) was 100 % of control; the T/C (dose: 200.0 mg/kg/injection, schedule: Q04DX003 (ip), vehicle: saline sonified) is 90 % of control.

Consider `CC(C)(C)C1COP(=O)(c2ccccc2)N(c2ccccc2)C1` (centres undefined), for which the T/C is 92 % of control (dose: 50.0 mg/kg/injection, schedule: Q01DX005 (ip), vehicle: saline with Tween-80) and 91 % of control (dose: 100.0 mg/kg/injection, schedule: Q01DX005 (ip), vehicle: saline with Tween-80).

`COc1cc(C(=O)OC2CC34CCNC35CC(OC5(OC)C2O)c2cc3c(cc24)OCO3)ccc1O` (centres undefined): the T/C was 100 % of control (dose: 0.5 mg/kg/injection, schedule: Q01DX010 (ip), vehicle: saline); 86 % of control (dose: 1.0 mg/kg/injection, schedule: Q01DX010 (ip), vehicle: carboxymethylcellulose (CMC)); 118 % of control (dose: 1.0 mg/kg/injection, schedule: Q01DX010 (ip), vehicle: saline); 95 % of control (dose: 2.0 mg/kg/injection, schedule: Q01DX010 (ip), vehicle: saline).

Turning to `Clc1ccc(OCc2sc3ccc(Cl)cc3c2CN2CCCCC2)cc1`, the T/C was 100 % of control under setting [1], 90 % of control under setting [2] and 90 % of control under setting [3].
